Where two headings read alike, the source gives them in different places.
How the values were obtained:
human orexin 1 receptor = human orexin 1 receptor (Homo sapiens (Human), UniProt O43613); experiment: Human orexin 1 receptor radioligand binding (competitive, [3H]-SB674042, CHO cell preparations)
rat orexin 1 receptor = rat orexin 1 receptor (Rattus norvegicus, UniProt P56718); experiment: Rat orexin 1 receptor radioligand binding (competitive, [3H]-SB674042, HEK293 cell preparations)
human orexin 2 receptor = human orexin 2 receptor (Homo sapiens (Human), UniProt O43614); experiment: Human orexin 2 receptor radioligand binding (competitive, [3H]-EMPA, HEK293 cell preparations)
[1] = human orexin 2 receptor, [3H]-EMPA competition binding, read-out: hOX2 Ki (nm)
[2] = human orexin 1 receptor, [3H]-SB674042 competition binding, read-out: hOX1 Ki (nm)
[3] = rat orexin 1 receptor, [3H]-SB674042 competition binding, read-out: rOX1 Ki (nm)

Sequence of human orexin 1 receptor (O43613 whole entry): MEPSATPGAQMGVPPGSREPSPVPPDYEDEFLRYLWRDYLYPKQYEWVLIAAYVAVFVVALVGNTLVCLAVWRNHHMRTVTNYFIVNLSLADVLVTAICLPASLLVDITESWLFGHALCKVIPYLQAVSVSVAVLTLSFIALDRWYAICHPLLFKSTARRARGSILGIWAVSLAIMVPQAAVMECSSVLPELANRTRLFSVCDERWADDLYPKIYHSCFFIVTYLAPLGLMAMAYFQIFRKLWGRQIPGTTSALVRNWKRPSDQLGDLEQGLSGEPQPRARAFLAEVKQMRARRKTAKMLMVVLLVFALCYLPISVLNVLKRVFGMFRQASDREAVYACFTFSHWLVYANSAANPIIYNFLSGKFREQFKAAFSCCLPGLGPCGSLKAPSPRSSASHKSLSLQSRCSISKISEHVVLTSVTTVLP
Sequence of human orexin 2 receptor (O43614 whole entry): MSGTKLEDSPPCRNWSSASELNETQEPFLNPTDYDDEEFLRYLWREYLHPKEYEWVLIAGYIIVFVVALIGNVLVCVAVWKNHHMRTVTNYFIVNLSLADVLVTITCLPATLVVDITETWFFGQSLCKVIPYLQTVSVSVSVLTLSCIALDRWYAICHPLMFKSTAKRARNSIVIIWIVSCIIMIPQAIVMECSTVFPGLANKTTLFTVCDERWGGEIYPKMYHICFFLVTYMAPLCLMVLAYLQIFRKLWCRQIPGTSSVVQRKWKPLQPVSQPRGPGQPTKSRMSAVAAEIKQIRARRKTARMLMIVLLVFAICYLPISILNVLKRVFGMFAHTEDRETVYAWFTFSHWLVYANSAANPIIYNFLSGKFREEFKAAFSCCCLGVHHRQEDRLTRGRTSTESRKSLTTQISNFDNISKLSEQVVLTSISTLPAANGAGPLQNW

Compound | Ki (human orexin 1 receptor; hOX1 Ki (nm)) [nM] | Ki (rat orexin 1 receptor; rOX1 Ki (nm)) [nM] | Ki (human orexin 2 receptor; [1]) [nM] | further results
Cc1cccc(C(=O)N2C3CCC2C(COc2ccc(F)cn2)C3)c1-n1nccn1 (racemic) [Example 125, (±)-(2-(((5-fluoropyridin-2-yl)oxy)methyl)-7-azabicyclo[2.2.1]heptan-7-yl)(3-methyl-2-(2H-1,2,3-triazol-2-yl)phenyl)methanone] | 29 | 47 | 132 | –
O=C(c1cc(CO)ccc1-n1nccn1)N1C2CCC1C(COc1ccc(F)cn1)C2 (racemic) [Example 126, (±)-(2-(((5-fluoropyridin-2-yl)oxy)methyl)-7-azabicyclo[2.2.1]heptan-7-yl)(5-(hydroxymethyl)-2-(2H-1,2,3-triazol-2-yl)phenyl)methanone] | – | – | 231 | Ki (human orexin 1 receptor; [2]): 27 nM; Ki (rat orexin 1 receptor; [3]): 23 nM
CCOc1ncc(Br)cc1C(=O)N1C2CCC1C(COc1ccccn1)C2 (racemic) [Example 157, (±)-(5-bromo-2-ethoxypyridin-3-yl)(2-((pyridin-2-yloxy)methyl)-7-azabicyclo[2.2.1]heptan-7-yl)methanone] | 134 | 94 | 537 | –
CCOc1ccnc(OCC)c1C(=O)N1C2CCC1C(COc1ccccn1)C2 (racemic) [Example 163, (±)-(2,4-diethoxypyridin-3-yl)(2-((pyridin-2-yloxy)methyl)-7-azabicyclo[2.2.1]heptan-7-yl)methanone] | – | – | 150 | Ki (human orexin 1 receptor; [2]): 153 nM; Ki (rat orexin 1 receptor; [3]): 150 nM
Cc1ccc(-n2nccn2)c(C(=O)N2C3CCC2C(COc2ncccc2C)C3)n1 (racemic) [Example 176, (±)-(6-methyl-3-(2H-1,2,3-triazol-2-yl)pyridin-2-yl)(2-(((3-methylpyridin-2-yl)oxy)methyl)-7-azabicyclo[2.2.1]heptan-7-yl)methanone] | – | – | 202 | Ki (human orexin 1 receptor; read-out: hOX1 Ki (nm)): 150 nM; Ki (rat orexin 1 receptor; read-out: rOX1 Ki (nm)): 119 nM
Cc1cnc(C(=O)N2C3CCC2C(Nc2cnc(C(F)(F)F)cn2)C3)c(-n2nccn2)c1 (racemic) [Example 184, (±)-(5-methyl-3-(2H-1,2,3-triazol-2-yl)pyridin-2-yl)(2-(5-(trifluoromethyl)pyrazin-2-yl)amino)-7-azabicyclo[2.2.1]heptan-7-yl)methanone] | – | – | – | Ki (human orexin 1 receptor; [2]): 349 nM; Ki (rat orexin 1 receptor; [3]): 189 nM; Ki (human orexin 2 receptor; hOX2 Ki (nm)): 4100 nM
Cc1ccc(-n2nccn2)c(C(=O)N2C3CCC2C(Nc2cnc(C(F)(F)F)cn2)C3)n1 (racemic) [Example 186, (±)-(6-methyl-3-(2H-1,2,3-triazol-2-yl)pyridin-2-yl)(2-(5-(trifluoromethyl)pyrazin-2-yl)amino)-7-azabicyclo[2.2.1]heptan-7-yl)methanone] | 164 | 134 | – | Ki (human orexin 2 receptor; hOX2 Ki (nm)): 1200 nM
O=C(c1cccc(F)c1-c1ncccn1)N1C2CCC1C(Nc1ccc(C(F)(F)F)cn1)C2 (racemic) [Example 192, (±)-(3-fluoro-2-(pyrimidin-2-yl)phenyl)(2-((5-(trifluoromethyl)pyridin-2-yl)amino)-7-azabicyclo[2.2.1]heptan-7-yl)methanone] | 52 | 60 | – | Ki (human orexin 2 receptor; hOX2 Ki (nm)): 1500 nM
Cc1ccc(-c2ncccn2)c(C(=O)N2C3CCC2C(Nc2ccc(C(F)(F)F)cn2)C3)n1 (racemic) [Example 195, (±)-(6-methyl-3-(pyrimidin-2-yl)pyridin-2-yl)(2-(5-(trifluoromethyl)pyridin-2-yl)amino)-7-azabicyclo[2.2.1]heptan-7-yl)methanone] | 37 | 57 | – | Ki (human orexin 2 receptor; hOX2 Ki (nm)): 325 nM
O=C(c1ccccc1-n1nccn1)N1C2CCC1C(Nc1ccc(C(F)(F)F)cn1)C2 (racemic) [Example 196, (±)-(2-(2H-1,2,3-triazol-2-yl)phenyl)(2-(5-(trifluoromethyl)pyridin-2-yl)amino)-7-azabicyclo[2.2.1]heptan-7-yl)methanone] | 61 | 59 | 1500 | –
O=C(c1ccccc1-n1nccn1)N1C2CCC1C(Nc1cnc3ccccc3n1)C2 (racemic) [Example 204, (±)-(2-(2H-1,2,3-triazol-2-yl)phenyl)(2-(quinoxalin-2-ylamino)-7-azabicyclo[2.2.1]heptan-7-yl)methanone] | 25 | 33 | – | Ki (human orexin 2 receptor; hOX2 Ki (nm)): 220 nM
Cc1ccc(-n2nccn2)c(C(=O)N2C3CCC2C(Nc2cnc4ccccc4n2)C3)n1 (racemic) [Example 205, (±)-(6-methyl-3-(2H-1,2,3-triazol-2-yl)pyridin-2-yl)(2-(quinoxalin-2-ylamino)-7-azabicyclo[2.2.1]heptan-7-yl)methanone] | 50 | 79 | – | Ki (human orexin 2 receptor; hOX2 Ki (nm)): 168 nM
Cc1ccc(-c2ncccn2)c(C(=O)N2C3CCC2C(Nc2cnc4ccccc4n2)C3)n1 (racemic) [Example 208, (±)-(6-methyl-3-(pyrimidin-2-yl)pyridin-2-yl)(2-(quinoxalin-2-ylamino)-7-azabicyclo[2.2.1]heptan-7-yl)methanone] | 30 | 26 | 90 | –
O=C(c1ccccc1-n1nccn1)N1C2CCC1C(Nc1ccc(Cl)cn1)C2 (racemic) [Example 211, (±)-(2-(2H-1,2,3-triazol-2-yl)phenyl)(2-(((5-chloropyridin-2-yl)amino)-7-azabicyclo[2.2.1]heptan-7-yl)methanone] | 55 | 110 | 1800 | –
O=C(c1ccccc1-n1nccn1)N1C2CCC1C(Nc1nc3cc(Cl)ccc3o1)C2 (racemic) [Example 216, (±)-(2-(2H-1,2,3-triazol-2-yl)phenyl)(2-((5-chlorobenzo[d]oxazol-2-yl)amino)-7-azabicyclo[2.2.1]heptan-7-yl)methanone] | 71 | 99 | 475 | –
Cc1ccc(-c2ncccn2)c(C(=O)N2C3CCC2C(Nc2ccc(Br)cn2)C3)n1 (racemic) [Example 217, (±)-(2-((5-bromopyridin-2-yl)amino)-7-azabicyclo[2.2.1]heptan-7-yl)(6-methyl-3-(pyrimidin-2-yl)pyridin-2-yl)methanone] | 40 | 59 | 770 | –
Cc1ccc(-c2ncccn2)c(C(=O)N2[C@@H]3CC[C@H]2[C@H](COc2ccccn2)C3)n1 (single isomer, unassigned) [Example 3A, (6-methyl-3-(pyrimidin-2-yl)pyridin-2-yl)((1S*,2R*,4R*)-2-((pyridin-2-yloxy)methyl)-7-azabicyclo[2.2.1]heptan-7-yl)methanone] | 19 | 24 | – | Ki (human orexin 2 receptor; hOX2 Ki (nm)): 268 nM
CCOc1ccc(C)nc1C(=O)N1C2CCC1C(Nc1cnc3ccccc3n1)C2 (single isomer, unassigned) [Example 207, (±)-(3-ethoxy-6-methylpyridin-2-yl)(2-(quinoxalin-2-ylamino)-7-azabicyclo[2.2.1]heptan-7-yl)methanone] | – | – | 64 | Ki (human orexin 1 receptor; [2]): 95 nM; Ki (rat orexin 1 receptor; [3]): 120 nM
O=C(c1cccc(F)c1-c1ncccn1)N1[C@@H]2CC[C@H]1[C@H](Nc1cnc(C(F)(F)F)cn1)C2 [Example 238, (3-fluoro-2-(pyrimidin-2-yl)phenyl)((1S,2R,4R)-2-((5-(trifluoromethyl)pyrazin-2-yl)amino)-7-azabicyclo[2.2.1]heptan-7-yl)methanone] | – | – | – | Ki (human orexin 1 receptor; read-out: hOX1 Ki (nm)): 16 nM; Ki (rat orexin 1 receptor; read-out: rOX1 Ki (nm)): 16 nM; Ki (human orexin 2 receptor; read-out: hOX2 Ki (nm)): 955 nM
COc1ccc(C(=O)N2[C@@H]3CC[C@H]2[C@H](Nc2cnc(C(F)(F)F)cn2)C3)c(-n2nccn2)c1 [Example 241, (4-methoxy-2-(2H-1,2,3-triazol-2-yl)phenyl)((1S,2R,4R)-2-((5-(trifluoromethyl)pyrazin-2-yl)amino)-7-azabicyclo[2.2.1]heptan-7-yl)methanone] | – | – | 5060 | Ki (human orexin 1 receptor; [2]): 159 nM; Ki (rat orexin 1 receptor; [3]): 134 nM
COc1cccc(-n2nccn2)c1C(=O)N1[C@@H]2CC[C@H]1[C@H](Nc1cnc(C(F)(F)F)cn1)C2 [Example 242, (2-methoxy-6-(2H-1,2,3-triazol-2-yl)phenyl)((1S,2R,4R)-2-((5-(trifluoromethyl)pyrazin-2-yl)amino)-7-azabicyclo[2.2.1]heptan-7-yl)methanone] | – | – | 239 | Ki (human orexin 1 receptor; read-out: hOX1 Ki (nm)): 41 nM; Ki (rat orexin 1 receptor; read-out: rOX1 Ki (nm)): 31 nM
O=C(c1cc(F)ccc1-c1ncccn1)N1[C@@H]2CC[C@H]1[C@H](Nc1cnc(C(F)(F)F)cn1)C2 [Example 243, (5-fluoro-2-(pyrimidin-2-yl)phenyl)((1S,2R,4R)-2-((5-(trifluoromethyl)pyrazin-2-yl)amino)-7-azabicyclo[2.2.1]heptan-7-yl)methanone] | – | – | 723 | Ki (human orexin 1 receptor; read-out: hOX1 Ki (nm)): 45 nM; Ki (rat orexin 1 receptor; read-out: rOX1 Ki (nm)): 34 nM
Cc1nc(C(=O)N2[C@@H]3CC[C@H]2[C@H](Nc2cnc(C(F)(F)F)cn2)C3)c(-c2ccc(F)cc2)s1 [Example 244, (5-(4-fluorophenyl)-2-methylthiazol-4-yl)((1S,2R,4R)-2-((5-(trifluoromethyl)pyrazin-2-yl)amino)-7-azabicyclo[2.2.1]heptan-7-yl)methanone] | – | – | 235 | Ki (human orexin 1 receptor; read-out: hOX1 Ki (nm)): 46 nM; Ki (rat orexin 1 receptor; read-out: rOX1 Ki (nm)): 74 nM
Cc1cccc(C(=O)N2[C@@H]3CC[C@H]2[C@H](Nc2cnc(C(F)(F)F)cn2)C3)c1-n1nccn1 [Example 245, (3-methyl-2-(2H-1,2,3-triazol-2-yl)phenyl)((1S,2R,4R)-2-((5-(trifluoromethyl)pyrazin-2-yl)amino)-7-azabicyclo[2.2.1]heptan-7-yl)methanone] | – | – | 288 | Ki (human orexin 1 receptor; read-out: hOX1 Ki (nm)): 7 nM; Ki (rat orexin 1 receptor; read-out: rOX1 Ki (nm)): 10 nM
Cc1ccc(C(=O)N2[C@@H]3CC[C@H]2[C@H](Nc2cnc(C(F)(F)F)cn2)C3)c(-n2ccnn2)n1 [Example 248, (6-methyl-2-(1H-1,2,3-triazol-1-yl)pyridin-3-yl)((1S,2R,4R)-2-((5-(trifluoromethyl)pyrazin-2-yl)amino)-7-azabicyclo[2.2.1]heptan-7-yl)methanone] | – | – | > 10000 | Ki (human orexin 1 receptor; [2]): 119 nM; Ki (rat orexin 1 receptor; [3]): 153 nM
